Source: publication PMC12073497 (Molecules, 2025)
Several values for one entry are separate records, joined by “and”; a condition that tells them apart may be missing. Identical values can stand only once.

Test system: not listed separately
Test: DPPH radical scavenging (antioxidant) assay
Format: biochemical
Settings: means of triplicate ± SEM
Excerpt: Oxidative stress is an imbalance between in vivo generated reactive oxygen/ nitrogen species (ROS/NOS) and the cellular antioxidant defenses. Oxidative stress is connected with more than one hundred illnesses that include cardiovascular, cancer, neurogenerative diseases, hypertension, atherosclerosis, and diabetes mellitus. Antioxidants decrease the cellular level of ROS and thus play a significant role in preventing related diseases. Antioxidants react with ROS through three possible mechanisms: (i) hydrogen transfer, (ii) electron transfer, and (iii) metal chelation. DPPH radical scavenging assay relies on the electron/hydrogen atom transfer (mixed) mechanism. The prepared crown ethers with variable cavity sizes 10a–d, parent precursor (FABE) 8, and the novel intermediate 7 were examined for antioxidant behavior using the DPPH radical scavenging protocol, following the literature, and the results are shown in Table 1.
Gulcin et al. proposed a method for the free radical scavenging activity (antioxidant activity) using 1,1-diphenyl-2-picryl-hydrazil (DPPH). An ethanolic solution of DPPH was prepared at a concentration of 0.3 mM. In the next step, different concentrations of each sample were prepared in ethanol, ranging from (62.5–500 μg) by mixing 5 microliters of each sample with 95 µL of DPPH solution. The resulting mixture was transferred to 96-well plates and incubated for 30 min at 37 °C. A microtiter plate reader (Spectramax plus 384 Molecular Device, San Jose, CA, USA) was used to measure the absorbance at 515 nm, and the radical scavenging activity (%) was compared with the methanol-treated control. The standard for the protocol was Butyl hydroxyanisole (BHA). DPPH scavenging effect (%) = Ac − As/Ac × 100, where Ac is the absorbance of the control (DMSO-treated), and As is the absorbance of the sample.

**Q.** Which IC50 does the source give for `COc1ccc(O)cc1C(C)(C)C` [Butylated hydroxyanisole, reference compound] here?
**A.** 44.2 ± 0.3 µM

**Q.** With `CCCCOC(=O)/C(CCC=C(C)C)=C1\[C@@H](OC(C)=O)C[C@@]2(C)[C@@H]1CC(O)[C@@H]1[C@@]3(C)CCC(O)[C@@H](C)C3CC[C@@]12C` (some centres unmarked) [Compound 8, Butyl(2Z)-2-[(4a,8a,14b,16b)-16-(acetyloxy)-3,11-dihydroxy-4,8,10,14-tetramethylgonan-17-ylidene]-6-methylhept-5-enoate] as the compound, how does the IC50 read?
**A.** 54.6 ± 0.2 µM

**Q.** Which IC50 does the source give for `CCCCOC(=O)C(CCC=C(C)C)=C1C(OC(C)=O)CC2(C)C1CC1OCCOCCOC3CCC4(C)C(CCC2(C)C14)C3C` [Compound 10a, Butyl(2Z)-2-[(3aS,16S,17aS,17bS,18S)-16-(acetyloxy)-3a,17a,17b,18-tetramethyloctahydro-3,6 methanocyclopenta[3,4]naptho[1,8hi][1,4,7]trioxyacylotridecin-15(1H)-ylidene]-6-methylhept-5-enoate] here?
**A.** 65.5 ± 0.3 µM

**Q.** With `CCCCOC(=O)/C(CCC=C(C)C)=C1/C2CC3OCCOCCOCCOC4CC[C@@]5(C)C(CC[C@@](C)(C35)[C@@]2(C)C[C@@H]1OC(C)=O)[C@@H]4C` (stereo partly drawn) [Compound 10b, Butyl(2Z)-2-[(3aS,19S,20aS,20bS,21S)-19-(acetyloxy)-3a,20a,20b,21-tetramethylicosahydro-3,6-methanocyclopenta[3,4]naphtho[1,8-kl][1,4,7,10]tetraoxacyclohexadecin-18(1H)-ylidene]-6-methylhept-5-enoate] as the compound, how does the IC50 read?
**A.** 22.5 µM and 32.1 µM

**Q.** Which IC50 does the source give for `CCCCOC(=O)/C(CCC=C(C)C)=C1/C2CC3OCCOCCOCCOCCOC4CC[C@@]5(C)C(CC[C@@](C)(C35)[C@@]2(C)C[C@@H]1OC(C)=O)[C@@H]4C` (stereo partly drawn) [Compound 10c, Butyl(2Z)-2-[(3aS,22S,23aS,23bS,24S)-22-(acetyloxy)-3a,23a,23b,24-tetramethyldocosahydro-3,6-methanocyclopenta[3,4]naphtho[1,8-no][1,4,7,10,13]pentaoxacyclononadecin-21(1H)-ylidene]-6-methylhept-5-enoate] here?
**A.** 32.1 µM and 22.5 µM

**Q.** For `CCCCOC(O)(OC(=NC1CCCCC1)NC1CCCCC1)/C(CCC=C(C)C)=C1\[C@@H](OC(C)=O)C[C@@]2(C)[C@H]1C[C@@H](O)[C@H]1[C@@]3(C)CC[C@@H](O)[C@@H](C)[C@@H]3CC[C@@]12C` (some centres unmarked) [Intermediate 7], which IC50 is on record?
**A.** 32.9 ± 0.4 µM

**Q.** For “Butyl(2Z)-2-[(3aS,27S,28aS,28bS,29S)-27-(acetyloxy)-3a,28a,28b,29-tetramethyltetracosahydro-3,6-methanocyclopenta[3,4] naphtho[1,8-st][1,3,6,9,12,15,18]heptaoxacyclotetracosin-26(1H)-ylidene]-6- methylhept-5-enoate [Compound 10d]”, which IC50 is on record?
**A.** 45.4 ± 0.9 µM

Target: α-glucosidase (Sigma, type III, from yeast) (Saccharomyces cerevisiae, UniProt P53341)
Test: α-Glucosidase inhibition assay
Format: biochemical
Settings: means of triplicate ± SEM
Experimental: In this background, according to the standard protocol [51], we examined the prepared crown ether molecules 10a–d along with parent precursor FABE 8 and the novel intermediate 7 for their in vitro α-glucosidase inhibition potential.
The protocol for the α-Glucosidase inhibition assay is built on the formation of product as a result of substrate breakdown, detected by absorbance measurement [69]. In the first step, an enzyme α-glucosidase (Sigma, type III, from yeast) was prepared in buffer solution A (0.1 mol/L potassium phosphate, 3.2 mmol/L-MgCl2, pH = 6.8) (0.1 units/mL) mixed with p-nitrophenyl-α-D-glucopyranoside dissolved to obtain the desired concentration of substrate of 6 mmol/L. Another Buffer solution B (102 µL) was prepared by mixing (0.5 M KH2PO4, 16 mmol/L-MgCl2, pH = 6.8) along with 120 µL of sample solution (0.6 mg/mL in dimethyl sulfoxide), 282 µL of water and 200 µL of substrate. In the next step, 200 µL of enzyme was added in the same reaction mixture, incubated for 5 min at 37 °C. […] The activity of enzyme inhibition was measured at 410 nm by its absorbance. […] The inhibition% is equal to Ac − As/Ac × 100, where Ac is the absorbance (control), and As is the absorbance (Sample).

α-glucosidase (Sigma, type III, from yeast), sequence (P53341 whole entry): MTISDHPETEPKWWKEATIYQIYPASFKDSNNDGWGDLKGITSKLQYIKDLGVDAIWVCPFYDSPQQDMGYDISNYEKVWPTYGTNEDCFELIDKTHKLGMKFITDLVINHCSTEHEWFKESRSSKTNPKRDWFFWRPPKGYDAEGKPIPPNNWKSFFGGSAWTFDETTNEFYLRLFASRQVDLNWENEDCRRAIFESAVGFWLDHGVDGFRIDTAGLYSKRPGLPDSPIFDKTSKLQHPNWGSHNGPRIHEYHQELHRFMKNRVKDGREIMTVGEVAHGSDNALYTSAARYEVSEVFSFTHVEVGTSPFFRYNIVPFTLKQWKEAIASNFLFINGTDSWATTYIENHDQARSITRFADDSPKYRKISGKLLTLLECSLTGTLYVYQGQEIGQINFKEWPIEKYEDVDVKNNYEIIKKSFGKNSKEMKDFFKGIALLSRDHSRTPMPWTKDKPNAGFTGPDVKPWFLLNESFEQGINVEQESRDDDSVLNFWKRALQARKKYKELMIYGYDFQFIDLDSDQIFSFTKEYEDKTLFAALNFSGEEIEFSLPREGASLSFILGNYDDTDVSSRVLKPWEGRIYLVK

**Q.** For “Butyl(2Z)-2-[(3aS,27S,28aS,28bS,29S)-27-(acetyloxy)-3a,28a,28b,29-tetramethyltetracosahydro-3,6-methanocyclopenta[3,4] naphtho[1,8-st][1,3,6,9,12,15,18]heptaoxacyclotetracosin-26(1H)-ylidene]-6- methylhept-5-enoate [Compound 10d]”, which IC50 is on record?
**A.** 54.3 ± 0.1 µM
